Results from ChEMBL document CHEMBL3872283, “Design, Synthesis, and Evaluation of Novel and Selective G-protein Coupled Receptor 120 (GPR120) Spirocyclic Agonists” (ACS Med Chem Lett, 2017).
Active and inactive are the calls of the source. The calls are words filed in the database; no cut-off is given here.

What was measured:
Mus musculus [1] = experiment: Decrease in insulin levels in diet-induced obese mouse at 30 mg/kg, po qd administered daily via gavage for 28 days measured on day 28 post dose; type: functional, organism-based
[2] = Plasma clearance in mouse at 2 mg/kg, iv or 10 mg/kg, po by LC/MS/MS analysis; type: ADME, organism-based
[3] = Plasma clearance in rhesus monkey at 0.5 mg/kg, iv or 1 mg/kg, po by LC/MS/MS analysis; type: ADME, organism-based, Macaca mulatta
[4] = Protein binding in rhesus monkey plasma at 0.5 mg/kg, iv or 1 mg/kg, po by LC/MS/MS analysis; type: ADME, organism-based, Macaca mulatta; conditions: read-out: PPB (converted)
[5] = Volume of distribution at steady state in mouse at 2 mg/kg, iv or 10 mg/kg, po by LC/MS/MS analysis; type: ADME, organism-based; conditions: in vivo, read-out: Vdss
[6] = MRT in rhesus monkey at 0.5 mg/kg, iv or 1 mg/kg, po by LC/MS/MS analysis; type: ADME, organism-based, Macaca mulatta; conditions: in vivo
[7] = molecular target: Voltage-gated inwardly rectifying potassium channel KCNH2 (Homo sapiens, UniProt Q12809); experiment: Displacement of [35S]-MK499 from human ERG expressed in HEK293 cell membranes
Sequence of Voltage-gated inwardly rectifying potassium channel KCNH2 (Q12809 whole entry): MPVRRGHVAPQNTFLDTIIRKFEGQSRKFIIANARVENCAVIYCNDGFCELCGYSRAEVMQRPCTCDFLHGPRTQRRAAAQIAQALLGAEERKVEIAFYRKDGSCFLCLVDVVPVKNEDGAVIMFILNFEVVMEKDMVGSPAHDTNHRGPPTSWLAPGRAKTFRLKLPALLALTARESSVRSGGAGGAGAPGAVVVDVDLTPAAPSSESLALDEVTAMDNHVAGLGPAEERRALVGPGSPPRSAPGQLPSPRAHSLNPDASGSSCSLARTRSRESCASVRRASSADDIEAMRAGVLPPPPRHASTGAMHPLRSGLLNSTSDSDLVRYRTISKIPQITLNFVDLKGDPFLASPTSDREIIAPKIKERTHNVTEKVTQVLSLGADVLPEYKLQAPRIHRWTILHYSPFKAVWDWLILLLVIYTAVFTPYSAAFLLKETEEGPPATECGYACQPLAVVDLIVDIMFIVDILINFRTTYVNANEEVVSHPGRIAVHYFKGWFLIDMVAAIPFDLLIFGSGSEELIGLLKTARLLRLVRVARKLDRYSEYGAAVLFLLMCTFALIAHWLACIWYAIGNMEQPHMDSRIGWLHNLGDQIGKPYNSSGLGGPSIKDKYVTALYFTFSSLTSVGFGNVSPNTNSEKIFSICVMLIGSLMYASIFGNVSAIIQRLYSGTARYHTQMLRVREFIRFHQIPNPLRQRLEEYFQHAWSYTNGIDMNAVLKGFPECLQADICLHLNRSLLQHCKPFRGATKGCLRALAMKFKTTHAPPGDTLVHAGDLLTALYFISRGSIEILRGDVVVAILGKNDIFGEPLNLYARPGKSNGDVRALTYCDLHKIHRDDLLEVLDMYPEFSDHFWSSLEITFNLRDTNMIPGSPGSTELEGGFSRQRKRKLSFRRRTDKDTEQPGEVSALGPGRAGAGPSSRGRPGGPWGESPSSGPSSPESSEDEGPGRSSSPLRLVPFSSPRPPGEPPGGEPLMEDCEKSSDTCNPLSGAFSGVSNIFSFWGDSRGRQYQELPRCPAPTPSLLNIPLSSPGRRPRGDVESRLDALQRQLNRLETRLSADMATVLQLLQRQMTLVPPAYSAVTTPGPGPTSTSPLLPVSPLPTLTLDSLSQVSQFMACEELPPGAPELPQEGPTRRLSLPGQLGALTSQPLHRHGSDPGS

[8] = Protein binding in rat plasma at 1 mg/kg, iv or 2 mg/kg, po by LC/MS/MS analysis; type: ADME, organism-based; conditions: read-out: PPB (converted)
[9] = molecular target: Sodium channel protein type 5 subunit alpha (Homo sapiens, UniProt Q14524); experiment: Inhibition of Nav1.5 (unknown origin)
Sequence of Sodium channel protein type 5 subunit alpha (Q14524 whole entry): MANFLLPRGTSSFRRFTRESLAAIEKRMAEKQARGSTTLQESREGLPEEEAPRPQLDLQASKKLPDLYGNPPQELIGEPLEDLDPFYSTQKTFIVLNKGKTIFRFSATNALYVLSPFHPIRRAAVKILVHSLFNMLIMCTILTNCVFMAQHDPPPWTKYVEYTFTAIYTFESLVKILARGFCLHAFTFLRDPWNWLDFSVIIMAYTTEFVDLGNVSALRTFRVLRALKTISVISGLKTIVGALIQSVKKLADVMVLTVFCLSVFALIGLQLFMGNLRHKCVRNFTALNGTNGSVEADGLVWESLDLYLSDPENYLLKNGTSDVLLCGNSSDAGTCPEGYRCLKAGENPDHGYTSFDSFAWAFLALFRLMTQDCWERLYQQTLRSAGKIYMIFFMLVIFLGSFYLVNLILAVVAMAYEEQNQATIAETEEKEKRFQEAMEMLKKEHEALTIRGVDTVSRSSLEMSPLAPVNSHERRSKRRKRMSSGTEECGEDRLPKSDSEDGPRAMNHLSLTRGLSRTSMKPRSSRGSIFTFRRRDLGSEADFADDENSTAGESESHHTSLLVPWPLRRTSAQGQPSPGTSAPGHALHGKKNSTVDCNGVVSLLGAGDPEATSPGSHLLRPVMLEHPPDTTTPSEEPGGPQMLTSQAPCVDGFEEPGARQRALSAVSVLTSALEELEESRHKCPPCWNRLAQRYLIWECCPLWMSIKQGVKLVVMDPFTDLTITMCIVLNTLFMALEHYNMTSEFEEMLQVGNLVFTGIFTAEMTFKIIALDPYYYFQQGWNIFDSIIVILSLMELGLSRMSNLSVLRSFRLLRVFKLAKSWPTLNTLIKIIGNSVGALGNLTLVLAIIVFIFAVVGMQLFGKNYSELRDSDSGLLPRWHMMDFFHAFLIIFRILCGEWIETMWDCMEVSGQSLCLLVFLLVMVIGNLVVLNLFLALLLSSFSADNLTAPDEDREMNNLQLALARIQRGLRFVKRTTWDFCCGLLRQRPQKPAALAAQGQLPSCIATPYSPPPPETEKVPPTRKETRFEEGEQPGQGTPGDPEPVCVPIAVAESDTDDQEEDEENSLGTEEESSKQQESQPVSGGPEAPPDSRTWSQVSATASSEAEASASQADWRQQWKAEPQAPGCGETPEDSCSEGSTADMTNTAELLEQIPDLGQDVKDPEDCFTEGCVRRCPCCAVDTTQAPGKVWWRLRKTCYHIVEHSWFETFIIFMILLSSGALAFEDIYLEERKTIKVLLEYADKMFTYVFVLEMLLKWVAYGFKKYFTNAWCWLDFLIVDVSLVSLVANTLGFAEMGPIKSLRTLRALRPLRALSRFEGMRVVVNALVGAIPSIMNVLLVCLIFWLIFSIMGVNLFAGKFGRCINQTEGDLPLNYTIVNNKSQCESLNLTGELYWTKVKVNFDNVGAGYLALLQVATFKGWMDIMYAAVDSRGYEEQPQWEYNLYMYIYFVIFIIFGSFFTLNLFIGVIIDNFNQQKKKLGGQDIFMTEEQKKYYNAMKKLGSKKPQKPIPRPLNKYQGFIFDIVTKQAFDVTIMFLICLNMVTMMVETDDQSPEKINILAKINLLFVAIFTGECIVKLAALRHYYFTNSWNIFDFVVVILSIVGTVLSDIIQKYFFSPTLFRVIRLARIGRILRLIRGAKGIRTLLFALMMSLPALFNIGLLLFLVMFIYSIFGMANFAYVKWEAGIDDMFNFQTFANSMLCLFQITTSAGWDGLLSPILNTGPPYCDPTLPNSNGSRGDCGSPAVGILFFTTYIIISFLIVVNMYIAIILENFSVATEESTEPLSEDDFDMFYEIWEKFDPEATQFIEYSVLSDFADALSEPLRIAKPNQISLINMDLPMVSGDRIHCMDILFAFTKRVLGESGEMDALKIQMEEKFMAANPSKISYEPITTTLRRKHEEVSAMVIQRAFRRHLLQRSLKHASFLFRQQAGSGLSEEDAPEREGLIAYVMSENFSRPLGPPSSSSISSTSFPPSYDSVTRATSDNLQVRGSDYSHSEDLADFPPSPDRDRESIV

[10] = Antidiabetic activity in C57BL/6 mouse at 30 mg/kg, po administered 60 mins via gavage prior to dextrose challenge measured up to 120 mins post dextrose challenge by oGTT; type: functional, organism-based
[11] = molecular target: T1, Peroxisome proliferator-activated receptor gamma (Homo sapiens) (UniProt P37231); experiment: Displacement of [3H]Rosiglitazone from recombinant human PPARgamma expressed in insect cells
T1 sequence (whole entry): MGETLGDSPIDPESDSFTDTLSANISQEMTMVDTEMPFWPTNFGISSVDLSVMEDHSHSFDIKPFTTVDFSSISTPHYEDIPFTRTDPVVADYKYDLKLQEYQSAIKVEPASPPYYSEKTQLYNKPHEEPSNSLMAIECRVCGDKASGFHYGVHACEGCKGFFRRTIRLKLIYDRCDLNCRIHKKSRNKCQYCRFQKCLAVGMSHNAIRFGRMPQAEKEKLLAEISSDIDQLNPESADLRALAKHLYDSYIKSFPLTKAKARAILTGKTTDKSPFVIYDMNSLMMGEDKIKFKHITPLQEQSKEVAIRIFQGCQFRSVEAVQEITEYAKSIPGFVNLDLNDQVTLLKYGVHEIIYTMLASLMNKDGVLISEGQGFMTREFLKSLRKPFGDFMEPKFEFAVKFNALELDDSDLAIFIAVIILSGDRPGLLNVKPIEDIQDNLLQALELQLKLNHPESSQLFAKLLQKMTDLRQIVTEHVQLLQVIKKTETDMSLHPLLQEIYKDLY

[12] = Protein binding in mouse plasma at 2 mg/kg, iv or 10 mg/kg, po by LC/MS/MS analysis; type: ADME, organism-based; conditions: read-out: PPB (converted)
[13] = Oral bioavailability in rat at 2 mg/kg by LC/MS/MS analysis; type: ADME, organism-based; conditions: in vivo
[14] = MRT in dog at 1 mg/kg, iv or 2 mg/kg, po by LC/MS/MS analysis; type: ADME, organism-based, Canis lupus familiaris; conditions: in vivo
[15] = molecular target: Free fatty acid receptor 1 (Homo sapiens, UniProt O14842); experiment: Agonist activity at human GPR40 expressed in HEK293 cells assessed as induction of IP1 accumulation after 60 mins by HTRF assay; type: functional, cell-based
Sequence of Free fatty acid receptor 1 (O14842 whole entry): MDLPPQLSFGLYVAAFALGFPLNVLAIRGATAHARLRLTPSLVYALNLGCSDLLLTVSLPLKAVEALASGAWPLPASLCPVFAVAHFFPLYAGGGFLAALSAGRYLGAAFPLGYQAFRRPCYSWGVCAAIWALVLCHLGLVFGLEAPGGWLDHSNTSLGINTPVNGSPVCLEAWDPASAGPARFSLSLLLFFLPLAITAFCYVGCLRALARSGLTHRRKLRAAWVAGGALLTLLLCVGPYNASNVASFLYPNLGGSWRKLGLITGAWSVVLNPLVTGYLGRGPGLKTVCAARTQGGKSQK

[16] = MRT in rat at 1 mg/kg, iv or 2 mg/kg, po by LC/MS/MS analysis; type: ADME, organism-based; conditions: in vivo
[17] = AUC in rhesus monkey at 0.5 mg/kg, iv by LC/MS/MS analysis; type: ADME, organism-based, Macaca mulatta; conditions: in vivo
[18] = Volume of distribution at steady state in rat at 1 mg/kg, iv or 2 mg/kg, po by LC/MS/MS analysis; type: ADME, organism-based; conditions: in vivo, read-out: Vdss
[19] = Volume of distribution at steady state in rhesus monkey at 0.5 mg/kg, iv or 1 mg/kg, po by LC/MS/MS analysis; type: ADME, organism-based, Macaca mulatta; conditions: in vivo, read-out: Vdss
Mus musculus [20] = experiment: Antidiabetic activity in diet-induced obese mouse assessed as insulin sensitivity by measuring reduction in glucose at 30 mg/kg, po qd administered daily via gavage for 14 days measured on day 14 post dose; type: functional, organism-based
[21] = Oral bioavailability in mouse at 10 mg/kg by LC/MS/MS analysis; type: ADME, organism-based; conditions: in vivo
[22] = AUC in rat at 1 mg/kg, iv by LC/MS/MS analysis; type: ADME, organism-based; conditions: in vivo
Mus musculus [23] = experiment: Decrease in insulin levels in diet-induced obese mouse at 30 mg/kg, po qd administered daily via gavage for 14 days measured on day 14 post dose; type: functional, organism-based
[24] = Half life in mouse at 2 mg/kg, iv or 10 mg/kg, po by LC/MS/MS analysis; type: ADME, organism-based; conditions: in vivo
Mus musculus [25] = experiment: Antidiabetic activity in diet-induced obese mouse assessed as insulin sensitivity by measuring reduction in glucose at 30 mg/kg, po qd administered daily via gavage for 28 days measured on day 28 post dose; type: functional, organism-based
Cytochrome P450 3A4 = Cytochrome P450 3A4 (Homo sapiens, UniProt P08684); experiment: Inhibition of human CYP3A4; type: ADME
Sequence of Cytochrome P450 3A4 (P08684 whole entry): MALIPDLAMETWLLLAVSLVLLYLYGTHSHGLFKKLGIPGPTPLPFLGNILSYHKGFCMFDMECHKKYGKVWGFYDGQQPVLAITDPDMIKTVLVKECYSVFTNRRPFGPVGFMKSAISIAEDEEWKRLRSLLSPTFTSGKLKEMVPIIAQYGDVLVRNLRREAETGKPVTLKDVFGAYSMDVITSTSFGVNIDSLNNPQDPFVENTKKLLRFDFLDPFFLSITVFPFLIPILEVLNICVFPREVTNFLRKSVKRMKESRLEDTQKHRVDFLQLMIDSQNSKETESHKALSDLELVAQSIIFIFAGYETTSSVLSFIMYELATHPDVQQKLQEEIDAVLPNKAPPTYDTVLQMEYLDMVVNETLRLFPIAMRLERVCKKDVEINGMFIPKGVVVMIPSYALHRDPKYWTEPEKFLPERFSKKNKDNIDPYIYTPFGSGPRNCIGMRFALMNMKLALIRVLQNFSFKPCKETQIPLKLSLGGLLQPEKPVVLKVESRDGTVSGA

[26] = Volume of distribution at steady state in dog at 1 mg/kg, iv or 2 mg/kg, po by LC/MS/MS analysis; type: ADME, organism-based, Canis lupus familiaris; conditions: in vivo, read-out: Vdss
[27] = Half life in rhesus monkey at 0.5 mg/kg, iv or 1 mg/kg, po by LC/MS/MS analysis; type: ADME, organism-based, Macaca mulatta; conditions: in vivo
[28] = Antidiabetic activity in C57BL/6 mouse administered 60 mins via oral gavage prior to dextrose challenge measured up to 120 mins post dextrose challenge by oGTT; type: functional
Mus musculus [29] = experiment: Antidiabetic activity in diet-induced obese mouse assessed as increase in glucose infusion rate during hyperinsulinemic euglycemic clamp procedure at 30 mg/kg, po qd administered daily via gavage measured after 28 days; type: functional, organism-based
[30] = molecular target: T2, Peroxisome proliferator-activated receptor delta (Homo sapiens) (UniProt Q03181); experiment: Binding affinity to human PPARdelta
T2 sequence (whole entry): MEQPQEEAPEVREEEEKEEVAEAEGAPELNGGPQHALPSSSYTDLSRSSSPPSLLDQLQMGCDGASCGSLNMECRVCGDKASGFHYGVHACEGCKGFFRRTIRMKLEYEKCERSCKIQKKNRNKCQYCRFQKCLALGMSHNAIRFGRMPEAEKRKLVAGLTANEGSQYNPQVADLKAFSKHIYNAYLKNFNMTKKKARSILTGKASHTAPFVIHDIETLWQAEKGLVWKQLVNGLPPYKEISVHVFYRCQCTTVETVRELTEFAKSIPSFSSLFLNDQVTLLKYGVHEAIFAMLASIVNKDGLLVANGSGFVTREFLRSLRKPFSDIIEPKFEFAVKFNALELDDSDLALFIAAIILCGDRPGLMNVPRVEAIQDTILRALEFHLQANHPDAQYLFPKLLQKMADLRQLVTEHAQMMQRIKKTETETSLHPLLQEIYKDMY

clearance [2]: 8.4 mL/min/kg
clearance [3]: 2.7 mL/min/kg
fraction unbound [4]: 0.0028
Vd [5]: 8.9 L/kg
MRT [6]: 10.1 h
fraction unbound [8]: 0.0013
INH [11]: > 10 µM
fraction unbound [12]: 0.0021
bioavailability [13]: 95%
MRT [14]: 10.5 h
EC50 [15]: > 10 µM
MRT [16]: 3 h
AUC [17]: 8.7 µM·h
Vd [18]: 0.4 L/kg
Vd [19]: 1.7 L/kg
bioavailability [21]: 100%
AUC [22]: 17.5 µM·h
half-life [24]: 18.1 h
INH (Cytochrome P450 3A4): > 48 µM
Vd [26]: 6.7 L/kg
half-life [27]: 9.1 h
Activity [30]: > 10 µM
SMILES: O=C(O)CC1CCC2(CC1)CCN(c1cc(OC(F)(F)F)ccc1Cl)CC2
Activity (Mus musculus [1]): Active
INH [7]: > 60 µM
INH [9]: 13 µM
Activity [10]: Active
Activity (Mus musculus [20]): Active
Activity (Mus musculus [23]): Active
Activity (Mus musculus [25]): Active
Activity [28]: Dose-dependent effect
Activity (Mus musculus [29]): Active
